Data: patent US20230141198A1, “PYRAZOL[…]” (THE KITASATO INSTITUTE, priority 2019, published 2023)
pEC50: −log10 of the molar value.

Experiments:
Format in all cases: cell-based
human opioid δ receptor = target: T1, human opioid δ receptor (Homo sapiens, UniProt P41143); experiment: Opioid receptor function test (agonist activity, Lance Ultra cAMP kit), δ receptor; settings: for Emax: maximum reaction relative to control drug SNC 80 taken as 100%
T1 construct: host or cells: CHO cells
Excerpt: (§1) Opioid Receptor Function Test
(§2) Functional activity of the compound provided by the present invention on μ, δ, and κ opioid receptors was examined.
(§3) Method: Using a Lance Ultra cAMP kit (Perkin Elmer), the functional activity was examined by a predetermined method. In evaluation of agonist activity, CHO cells expressing each of human opioid receptors (δ, μ, and κ: accession numbers and catalog numbers are described below) were reacted with a test compound in an assay buffer (1× HBSS, […], pH 7.4, […] isobutylmethylxanthine (IBMX), 7.5% BSA) in the presence of 10 μM forskolin for 30 minutes. Subsequently, a cAMP detection reagent in the kit was added. One hour later, time-resolved fluorescence measurement was performed using an EnVision plate reader (Perkin Elmer). The test compound and each control drug (δ: SNC 80, μ: DAMGO, κ: U-69593) were evaluated in a concentration range of 10^−12 to 10^−5 M. A dose reaction curve of the test compound was determined from a fluorescence value at 665 nm, and an EC50 value and an Emax value were calculated. The Emax value was determined as a ratio of a maximum reaction of the test compound when a maximum reaction of each control drug was taken as 100%.

human opioid μ receptor = target: T2, human opioid μ receptor (Homo sapiens, UniProt P35372); experiment: Opioid receptor function test (agonist activity, Lance Ultra cAMP kit), μ receptor; settings: for Emax: maximum reaction relative to control drug DAMGO taken as 100%
T2 construct: host or cells: CHO cells
Excerpt: as §1, §2, §3

human opioid κ receptor = target: T3, human opioid κ receptor (Homo sapiens, UniProt P41145); experiment: Opioid receptor function test (agonist activity, Lance Ultra cAMP kit), κ receptor; settings: for Emax: maximum reaction relative to control drug U-69593 taken as 100%
T3 construct: host or cells: CHO cells
Excerpt: as §1, §2, §3

T3 sequence (P41145 whole entry): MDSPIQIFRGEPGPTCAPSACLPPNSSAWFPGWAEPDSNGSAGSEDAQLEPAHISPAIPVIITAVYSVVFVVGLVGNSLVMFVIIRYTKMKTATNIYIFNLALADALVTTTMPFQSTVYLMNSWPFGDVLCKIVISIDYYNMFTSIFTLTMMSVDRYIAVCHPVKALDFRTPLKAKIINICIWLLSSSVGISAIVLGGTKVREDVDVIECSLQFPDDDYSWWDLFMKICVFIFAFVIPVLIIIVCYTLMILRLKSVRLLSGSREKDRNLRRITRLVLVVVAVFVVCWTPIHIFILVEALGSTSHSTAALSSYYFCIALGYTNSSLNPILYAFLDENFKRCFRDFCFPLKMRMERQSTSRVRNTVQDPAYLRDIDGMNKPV
T1 sequence (P41143 whole entry): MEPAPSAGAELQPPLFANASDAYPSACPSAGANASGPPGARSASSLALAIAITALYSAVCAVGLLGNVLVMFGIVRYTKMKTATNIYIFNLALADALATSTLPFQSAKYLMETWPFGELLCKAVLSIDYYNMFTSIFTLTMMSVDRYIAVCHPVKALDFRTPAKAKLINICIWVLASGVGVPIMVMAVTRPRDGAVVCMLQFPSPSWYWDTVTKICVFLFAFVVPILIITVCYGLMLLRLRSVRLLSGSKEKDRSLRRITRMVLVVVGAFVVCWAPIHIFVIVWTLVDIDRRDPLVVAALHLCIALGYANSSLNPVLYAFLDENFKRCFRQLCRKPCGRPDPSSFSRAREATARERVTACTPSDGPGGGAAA
T2 sequence (P35372 whole entry): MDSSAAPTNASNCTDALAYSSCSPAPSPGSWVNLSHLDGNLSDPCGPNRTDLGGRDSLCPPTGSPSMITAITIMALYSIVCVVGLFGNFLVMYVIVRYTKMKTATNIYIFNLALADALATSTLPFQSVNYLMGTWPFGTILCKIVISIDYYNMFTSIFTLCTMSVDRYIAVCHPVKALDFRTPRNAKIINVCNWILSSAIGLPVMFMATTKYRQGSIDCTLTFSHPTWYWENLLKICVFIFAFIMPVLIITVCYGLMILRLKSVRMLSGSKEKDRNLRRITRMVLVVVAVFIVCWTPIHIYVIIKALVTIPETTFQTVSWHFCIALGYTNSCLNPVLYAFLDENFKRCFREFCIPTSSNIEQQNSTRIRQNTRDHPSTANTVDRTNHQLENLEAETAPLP

SMILES | pEC50 (human opioid δ receptor) | Emax (human opioid δ receptor) | pEC50 (human opioid μ receptor) | Emax (human opioid μ receptor) | pEC50 (human opioid κ receptor) | Emax (human opioid κ receptor)
Cc1[nH]nc2c1C[C@@]1(O)[C@H]3Cc4ccc(O)cc4[C@@]1(CCN3CC1CC1)C2 [34, 35] | 8.89 | 42% |  |  |  | 
Cc1c2c(nn1-c1ccccc1)C[C@]13CCN(CC4CC4)[C@H](Cc4ccc(O)cc41)[C@]3(O)C2 [Compound 20, (6R,6aS,11aR)-14-(cyclopropylmethyl)-8-methyl-9-phenyl-5,6,9,11-tetrahydro-6,11a-(epiminoethano)naphtho[2,1-f]indazole-2,6a(7H)-diol] | 9.05 | 86% | 8.09 | 10% | 8.06 | 12%
Cc1nn(-c2ccccc2)c2c1C[C@@]1(O)[C@H]3Cc4ccc(O)cc4[C@@]1(CCN3CC1CC1)C2 [Compound 21, (6R,6aS,11aR)-14-(cyclopropylmethyl) methyl-10-phenyl-5,6,10,11-tetrahydro-6,11a-(epiminoethano)naphtho[2,1-f]indazole-2,6a(7H)-diol] | 9.12 | 81% |  |  |  | 
Cc1nn(-c2ccccn2)c2c1C[C@@]1(O)[C@H]3Cc4ccc(O)cc4[C@@]1(CCN3CC1CC1)C2 [Compound 27, (6R,6aS,11aR)-14-(cyclopropylmethyl)-8-methyl-10-(pyridin-2-yl)-5,6,10,11-tetrahydro-6,11a-(epiminoethano)naphtho[2,1-f]indazole-2,6a(7H)-diol] | 9.08 | 51% |  |  |  | 
Cc1nn(-c2ccncc2)c2c1C[C@@]1(O)[C@H]3Cc4ccc(O)cc4[C@@]1(CCN3CC1CC1)C2 [Compound 28, (6R,6aS,11aR)-14-(cyclopropylmethyl)-8-methyl-10-(pyridin-4-yl)-5,6,10,11-tetrahydro-6,11a-(epiminoethano)naphtho[2,1-f]indazole-2,6a(7H)-diol] | 9.48 | 101% |  |  | 7.24 | 15%
Cc1nn(C2CCCCC2)c2c1C[C@@]1(O)[C@H]3Cc4ccc(O)cc4[C@@]1(CCN3CC1CC1)C2 [Compound 32, (6R,6aS,11aR)-10-cyclohexyl-14-(cyclopropylmethyl)-8-methyl-5,6,10,11-tetrahydro-6,11a-(epiminoethano)naphtho[2,1-f]indazole-2,6a(7H)-diol] | 10.05 | 111% |  |  |  | 
Cc1c2c(nn1C1CCCCC1)C[C@]13CCN(CC4CC4)[C@H](Cc4ccc(O)cc41)[C@]3(O)C2 [Compound 33, (6R,6aS,11aR)-9-cyclohexyl-14-(cyclopropylmethyl)-8-methyl-5,6,9,11-tetrahydro-6,11a-(epiminoethano)naphtho[2,1-f]indazole-2,6a(7H)-diol] | 9.85 | 108% |  |  | 7.36 | 13%
Cc1nn(C(=O)c2ccccc2)c2c1C[C@@]1(O)[C@H]3Cc4ccc(O)cc4[C@@]1(CCN3CC1CC1)C2 [Compound 36, ((6R,6aS,11aR)-14-(cyclopropylmethyl)-2,6a-dihydroxy-8-methyl-6,6a,7,11-tetrahydro-6,11a-(epiminoethano)naphtho[2,1-f]indazol-10(5H)-yl)(phenyl)methanone] | 8.47 | 65% |  |  |  | 
Cc1c2c(nn1CC1CCCCC1)C[C@]13CCN(CC4CC4)[C@H](Cc4ccc(O)cc41)[C@]3(O)C2 [Compound 42, (6R,6aS,11aR)-9-(cyclohexylmethyl)-14-(cyclopropylmethyl)-8-methyl-5,6,9,11-tetrahydro-6,11a-(epiminoethano)naphtho[2,1-f]indazole-2,6a(7H)-diol] | 9.00 | 90% |  |  |  | 
Cc1nn(CC2CC2)c2c1C[C@@]1(O)[C@H]3Cc4ccc(O)cc4[C@@]1(CCN3CC1CC1)C2 [Compound 45, (6R,6aS,11aR)-10,14-bis(cyclopropylmethyl)-8-methyl-5,6,10,11-tetrahydro-6,11a-(epiminoethano)naphtho[2,1-f]indazole-2,6a(7H)-diol] | 9.12 | 72% |  |  |  | 
Cc1c2c(nn1CC1CC1)C[C@]13CCN(CC4CC4)[C@H](Cc4ccc(O)cc41)[C@]3(O)C2 [Compound 46, (6R,6aS,11aR)-9,14-bis(cyclopropylmethyl)-8-methyl-5,6,9,11-tetrahydro-6,11a-(epiminoethano)naphtho[2,1-f]indazole-2,6a(7H)-diol] | 9.77 | 105% |  |  |  | 
Cc1nn(-c2cccnc2)c2c1C[C@@]1(O)[C@H]3Cc4ccc(O)cc4[C@@]1(CCN3CC1CC1)C2 [Compound 49, (6R,6aS,11aR)-14-(cyclopropylmethyl)-8-methyl-10-(pyridin-3-yl)-5,6,10,11-tetrahydro-6,11a-(epiminoethano)naphtho[2,1-f]indazole-2,6a(7H)-diol] | 9.30 | 73% |  |  |  | 
Cc1nn(-c2nccs2)c2c1C[C@@]1(O)[C@H]3Cc4ccc(O)cc4[C@@]1(CCN3CC1CC1)C2 [Compound 51, (6R,6aS,11aR)-14-(cyclopropylmethyl)-8-methyl-10-(thiazol-2-yl)-5,6,10,11-tetrahydro-6,11a-(epiminoethano)naphtho[2,1-f]indazole-2,6a(7H)-diol] | 9.03 | 54% |  |  |  | 
Cc1nn(-c2ccccc2)c2c1C[C@@]1(O)[C@H]3Cc4ccc(O)cc4[C@@]1(CCN3C)C2 [Compound 61, (6R,6aS,11aR)-8,14-dimethyl-10-phenyl-5,6,10,11-tetrahydro-6,11a-(epiminoethano)naphtho[2,1-f]indazole-2,6a(7H)-diol] | 7.82 | 91% | 6.59 | 63% | 5.99 | 14%
O=c1c2c([nH]n1-c1ccccc1)C[C@]13CCN(CC4CC4)[C@H](Cc4ccc(O)cc41)[C@]3(O)C2 [Compound 68, (6R,6aS,11aR)-14-(cyclopropylmethyl)-2,6a-dihydroxy-9-phenyl-6,6a,7,9,10,11-hexahydro-6,11a-(epiminoethano)naphtho[2,1-f]indazol-8(5H)-one] | 8.85 | 100% |  |  |  | 
Cc1nn(C2CC2)c2c1C[C@@]1(O)[C@H]3Cc4ccc(O)cc4[C@@]1(CCN3CC1CC1)C2 [Compound 82, (6R,6aS,11aR)-10-cyclopropyl-14-(cyclopropylmethyl)-8-methyl-5,6,10,11-tetrahydro-6,11a-(epiminoethano)naphtho[2,1-f]indazole-2,6a(7H)-diol] | 9.03 | 39% |  |  |  | 
Cc1c2c(nn1C1CC1)C[C@]13CCN(CC4CC4)[C@H](Cc4ccc(O)cc41)[C@]3(O)C2 [Compound 83, (6R,6aS,11aR)-9-cyclopropyl-14-(cyclopropylmethyl)-8-methyl-5,6,9,11-tetrahydro-6,11a-(epiminoethano)naphtho[2,1-f]indazole-2,6a(7H)-diol] | 9.89 | 99% | 7.96 | 16% | 7.30 | 30%
Cc1nn(C2CCC2)c2c1C[C@@]1(O)[C@H]3Cc4ccc(O)cc4[C@@]1(CCN3CC1CC1)C2 [Compound 84, (6R,6aS,11aR)-10-cyclobutyl-14-(cyclopropylmethyl)-8-methyl-5,6,10,11-tetrahydro-6,11a-(epiminoethano)naphtho[2,1-f]indazole-2,6a(7H)-diol] | 9.47 | 95% |  |  |  | 
Cc1c2c(nn1C1CCC1)C[C@]13CCN(CC4CC4)[C@H](Cc4ccc(O)cc41)[C@]3(O)C2 [Compound 85, (6R,6aS,11aR)-9-cyclobutyl-14-(cyclopropylmethyl) methyl-5,6,9,11-tetrahydro-6,11a-(epiminoethano)naphtho[2,1-f]indazole-2,6a(7H)-diol] | 10.04 | 104% | 7.80 | 26% | 7.77 | 25%
Cc1nn(C2CCCC2)c2c1C[C@@]1(O)[C@H]3Cc4ccc(O)cc4[C@@]1(CCN3CC1CC1)C2 [Compound 86, (6R,6aS,11aR)-10-cyclopentyl-14-(cyclopropylmethyl)-8-methyl-5,6,10,11-tetrahydro-6,11a-(epiminoethano)naphtho[2,1-f]indazole-2,6a(7H)-diol] | 9.92 | 101% |  |  |  | 
Cc1nn(C2CCOCC2)c2c1C[C@@]1(O)[C@H]3Cc4ccc(O)cc4[C@@]1(CCN3CC1CC1)C2 [Compound 88, (6R,6aS,11aR)-14-(cyclopropylmethyl)-8-methyl-10-(tetrahydro-2H-pyran-4-yl)-5,6,10,11-tetrahydro-6,11a-(epiminoethano)naphtho[2,1-f]indazole-2,6a(7H)-diol] | 10.07 | 113% |  |  |  | 
Cc1nn(C2CCSCC2)c2c1C[C@@]1(O)[C@H]3Cc4ccc(O)cc4[C@@]1(CCN3CC1CC1)C2 [Compound 89, (6R,6aS,11aR)-14-(cyclopropylmethyl)-8-methyl-10-(tetrahydro-2H-thiopyran-4-yl)-5,6,10,11-tetrahydro-6,11a-(epiminoethano)naphtho[2,1-f]indazole-2,6a(7H)-diol] | 10.16 | 112% |  |  |  | 
Cc1c2c(nn1C1CCSCC1)C[C@]13CCN(CC4CC4)[C@H](Cc4ccc(O)cc41)[C@]3(O)C2 [Compound 90, (6R,6aS,11aR)-14-(cyclopropylmethyl)-8-methyl-9-(tetrahydro-2H-thiopyran-4-yl)-5,6,9,11-tetrahydro-6,11a-(epiminoethano)naphtho[2,1-f]indazole-2,6a(7H)-diol] | 10.04 | 116% |  |  | 8.09 | 15%
